According to patent publication EP0325187B1, “4-alkyl-1, 4-dihydropyridines with PAF-antagonist activity” (ALTER, S.A., priority 1988, dated 1989):

What was measured:
RABBIT PLATELETS [1] = experiment: Aggregation of washed platelets induced by PAF (turbidimetric, lumiaggregometer); format: cell-based, rabbits (male, albino, New Zealand); details: Oryctolagus cuniculus, Platelet; compound 10 µM; 1-PAF 1.92 nM; pre-incubation 5 minutes; average of six experiments in triplicate
Experimental: (§1) • 1. STUDIES ON WASHED PLATELETS • 1.1.Aggregation The suspensions of washed platelets were obtained from the blood of rabbits (male, albino, New Zealand) anticoagulated with a citric acid-dextrose solution in the proportion 1:6 (v:v.) The platelet rich plasma (PRP) was obtained by centrifuging the blood samples at 100xg for 10 minutes and the platelet suspensions by centrifuging the PRP at 1,800xg for 15 minutes at 4° C. The pellet thus obtained was washed twice with Tyrode buffer containing citric acid, PGE₁ and apirase, pH 6.5. The platelets thus washed were finally resuspended in Hepes-Tyrode buffer, pH 7.35, supplemented with bovine albumin serum at 0.35 %; Ca⁺⁺2 mM. The final concentration of platelets was adjusted to 300,000 platelets/µl. The aggregation was measured turbidimetrically using a lumiaggregometer (Chrono-Log Co., Haventon, PA, USA) at 37° C under stirring at 1,100 r.p.m. The study was also carried out on aliquots of PRP pre-incubated with the compounds under study at 37° C for 5 minutes. The concentration of the antagonists were in all cases 10 µM and aggregation was induced by adding L-PAF diluted in 5 µl of Hepes buffer/albumin, with a final concentration 1.9 x 10⁻⁹M. • 1.2. Release reaction The platelet secretion was measured in the presence of luciferin/luciferase with ATP release in accord with the method described by Feinman et al. (1977.) • 2. STUDIES ON ANESTHETIZED RATS Hypotension induced by an intravenous injection of PAF-aceter. Male Sprague-Dawley rats anesthetized with pentobarbital (50 mg/kg., intraperitoneally) were used.

RABBIT PLATELETS [2] = experiment: Platelet release reaction (ATP release, luciferin/luciferase) induced by PAF; format: cell-based, rabbits (male, albino, New Zealand); details: Oryctolagus cuniculus, read-out: % […] REACTION, compound 10 µM, 1-PAF 1.92 nM, pre-incubation 5 minutes, average of six experiments in triplicate
Experimental: as §1

| Compound | inhibition at 10 µM (RABBIT PLATELETS [1]) | inhibition at 10 µM (RABBIT PLATELETS [2]) |
| --- | --- | --- |
| CCSCCOC(=O)C1=C(C)NC(C)=C(C(=O)OC)C1C (stereo not shown) [Example 1, 2-(ethylthio)ethyl-2,6-dimethyl-4-methyl-5-methoxycarbonyl-1,4-dihydropyridin-3-carboxylate] | 44% | 96% |
| COC(=O)C1=C(C)NC(C)=C(C(=O)OCCSC)C1C (stereo not shown) [Example 2, 2-(methylthio)ethyl-2,6-dimethyl-4-methyl-5-methoxycarbonyl-1,4-dihydropyridin-3-carboxylate] | 26% | 75% |
| CCOC(=O)C1=C(C)NC(C)=C(C(=O)OCCSC)C1C (stereo not shown) [Example 3, 2,6-(methylthio)ethyl-2,6 dimethyl-5-ethoxycarbonyl-4-methyl-1,4-dihydropyridin-3-carboxylate] | 21% | 78% |
| CCOC(=O)C1=C(C)NC(C)=C(C(=O)OCCSCC)C1C (stereo not shown) [Example 4, 2-(ethylthio)ethyl-2,6-dimethyl-5-ethoxycarbonyl-4-methyl-1,4-dihydropyridin-3-carboxylate] | 32% | 89% |
| CCOC(=O)C1=C(C)NC(C)=C(C(=O)OCCSC)C1CC (stereo not shown) [Example 6, 2-(methylthio)ethyl-2,6-dimethyl-4-ethyl-5-ethoxycarbonyl-1,4-dihydropyridin-3-carboxylate] | 32% | 89% |
| CCCC1C(C(=O)OCC)=C(C)NC(C)=C1C(=O)OCCSC (stereo not shown) [Example 7, 2-(methylthio)ethyl-2,6-dimethyl-5-ethoxycarbonyl-4-n-propyl-1,4-dihydropyridin-3-carboxylate] | 14% | 50% |
| CCCC1C(C(=O)OCC)=C(C)NC(C)=C1C(=O)OCCSCC (stereo not shown) [Example 8, 2-(ethylthio)ethyl-2,6-dimethyl-5-ethoxycarbonyl-4-n-propyl-1,4-dihydropyridin-3-carboxylate] | 30% | 69% |
| CCOC(=O)C1=C(C)NC(C)=C(C(=O)OCCSc2ccccc2)C1C (stereo not shown) [Example 9, 2-(phenylthio)ethyl-2,6-dimethyl-5-ethoxycarbonyl-4-methyl-1,4-dihydropyridin-3-carboxylate] | 100% | 100% |
| CC1=C(C(=O)OCCSc2ccccc2)C(C)C(C(=O)OCC2CCCO2)=C(C)N1 (stereo not shown) [Example 10, 2-(phenylthio)ethyl-2,6-dimethyl-4-methyl 5-(2-tetrahydrofurfuryloxycarbonyl)-1,4-dihydropyridin-3-carboxylate] | 11% | 49% |
| CC1=C(C(=O)OCCSc2ccccc2)C(C)C(C(=O)OC(C)C)=C(C)N1 (stereo not shown) [Example 11, 2-(phenylthio)ethyl-2,6-dimethyl-5-isopropoxycarbonyl-4-methyl-1,4-dihydropyridin-3-carboxylate] | 33% | 89% |
| COC(=O)C1=C(C)NC(C)=C(C(=O)OCCSc2ccccc2)C1C (stereo not shown) [Example 12, 2-(phenylthio)ethyl-2,6-dimethyl 4-methyl-5-methoxycarbonyl-1,4-dihydropyridin-3-carboxylate] | 100% | 100% |
